In test [1] the target is T1, dopamine autoreceptor (D2) (Rattus norvegicus, UniProt P61169).
T1 construct: homogenized rat striatal brain tissue; from tissue; host or cells: rat striatum, homogenate
Nature of the test: Affinity for the dopamine autoreceptor, 3H-quinpirole binding in homogenized rat striatal brain tissue (D2 Quin.). Here is the method:
Affinity for the dopamine autoreceptor was established by a modification of the standard experimental test procedure of Seemen and Schaus, European Journal of Pharmacology 203: 105-109, 1991, wherein homogenized rat striatal brain tissue is incubated with ^3 H-quinpirole (Quin.) and various concentrations of test compound, filtered and washed and counted in a Betaplate scintillation counter.

In another test the target is T2, dopamine D-2 receptor (Rattus norvegicus, UniProt P61169).
T2 construct: from tissue; host or cells: limbic brain tissue, homogenate
T2 sequence (P61169 whole entry): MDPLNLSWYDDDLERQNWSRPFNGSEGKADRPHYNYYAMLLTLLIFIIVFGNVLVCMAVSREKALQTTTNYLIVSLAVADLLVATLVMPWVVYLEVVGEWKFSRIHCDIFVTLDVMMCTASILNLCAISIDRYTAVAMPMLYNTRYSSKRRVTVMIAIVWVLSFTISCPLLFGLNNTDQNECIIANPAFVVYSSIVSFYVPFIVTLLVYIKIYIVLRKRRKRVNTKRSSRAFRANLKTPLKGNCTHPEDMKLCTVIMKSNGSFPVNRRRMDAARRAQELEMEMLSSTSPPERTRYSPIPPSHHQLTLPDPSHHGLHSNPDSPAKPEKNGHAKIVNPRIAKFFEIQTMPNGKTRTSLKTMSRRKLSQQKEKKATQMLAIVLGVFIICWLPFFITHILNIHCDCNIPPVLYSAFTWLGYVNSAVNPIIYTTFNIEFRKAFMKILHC
Kind of test: Affinity for the dopamine D-2 receptor, 3H-spiroperidol binding in homogenized limbic brain tissue (D2 Spiper). The conditions noted are these: for Ratio: IC50 D2 Spiper / IC50 D2 Quin. (LowAg/HighAg, predicts intrinsic activity). Here is the method:
High affinity for the dopamine D-2 receptor was established by the standard experimental test procedure of Fields, et al., Brain Res., 136, 578 (1977) and Yamamura et al., eds., Neurotransmitter Receptor Binding, Raven Press, N.Y. (1978) wherein homogenized limbic brain tissue is incubated with ^3 H-spiroperidol (Spiper.) and various concentrations of test compound, filtered and washed and shaken with Hydrofluor scintillation cocktail (National Diagnostics) and counted in a Packard 460 CD scintillation counter.

Where [2] appears, read: 3H-quinpirole, homogenized rat striatal brain tissue, read-out: IC50 (nM) D2 Quin.
[3] abbreviates: 3H-spiroperidol, homogenized limbic brain tissue, read-out: IC50 (nM) D2 Spiper.

Where two headings read alike, the source gives them in different places.

T1 sequence (P61169 whole entry): as above

Consider `c1ccc(CNCCOc2cccc3nc[nH]c23)cc1` [Example 1, [2-(1H-Benzoimidazol-4-yloxy)-ethyl]-benzyl-amine], for which the half-inhibitory concentration (IC50) in test [1] (setting [2]) worked out at 26.7 nM.
Regarding `Cc1nc2c(OCCNCc3ccccc3)cccc2[nH]1` [Example 2, Benzyl-[2-(2-methyl-1H-benzoimidazol-4-yloxy)-ethyl]-amine], the IC50 at dopamine D-2 receptor (setting [3]) is 339 nM; in test [1] (setting [2]), 8.85 nM. Moreover, the Ratio at dopamine D-2 receptor is given as 38.3.
For `FC(F)(F)c1nc2c(OCCNCc3ccccc3)cccc2[nH]1` [Example 3, Benzyl-[2-(2-trifluoromethyl-1H-benzoimidazol-4-yloxy)-ethyl]-amine], the figures for the IC50 (on dopamine D-2 receptor (setting [3]); in test [1] (setting [2])) were 23.7 nM and 0.36 nM, respectively. Further, on dopamine D-2 receptor, the Ratio is given as 65.8.
Regarding `Cc1ccc(CNCCOc2cccc3[nH]c(C(F)(F)F)nc23)cc1` [Example 4, (4-Methyl-benzyl)-[2-(2-trifluoromethyl-1H-benzoimidazol-4-yloxy)-ethyl]-amine], the IC50 on dopamine D-2 receptor (setting [3]) came to 29.9 nM; in test [1] (setting [2]), 0.74 nM. Besides, on dopamine D-2 receptor, the Ratio was 40.4.
The like results for `Cc1ccc(CNCCOc2cccc3[nH]c(Cc4ccccc4)nc23)cc1` [Example 5, [2-(2-Benzyl-1H-benzoimidazol-4-yloxy)-ethyl]-(4-methyl-benzyl)-amine] were, in that order, 2160 nM, 54.8 nM and 39.4.
Consider `Cc1ccc(CNCCOc2cccc3[nH]c(C(F)(F)C(F)(F)F)nc23)cc1` [Example 6, (4-Methyl-benzyl)-{2-[2-(1,1,2,2,2-pentafluoro-ethyl)-1H-benzoimidazol-4-yloxy]-ethyl}-amine], for which the IC50 at dopamine D-2 receptor (setting [3]) was found to be 66.5 nM; in test [1] (setting [2]), 1.44 nM. Also, the Ratio on dopamine D-2 receptor is recorded as 46.2.
As to `FC(F)(F)c1nc2c(OCCNCc3cccs3)cccc2[nH]1` [Example 7, Thiophen-2-ylmethyl-[2-(2-trifluoromethyl-1H-benzoimidazol-4-yloxy)-ethyl]-amine], the IC50 at dopamine D-2 receptor (setting [3]) amounted to 37.4 nM; in test [1] (setting [2]) it was 1.03 nM. Moreover, on dopamine D-2 receptor, the Ratio was 36.3.
Take `FC(F)(F)c1nc2c(OCCCNCc3ccccc3)cccc2[nH]1` [Example 8, Benzyl-[3-(2-trifluoromethyl-1H-benzoimidazol-4-yloxy)-propyl]-amine]: the IC50 worked out at 1460 nM at dopamine D-2 receptor (setting [3]) and 86.8 nM in test [1] (setting [2]). In addition, the Ratio on dopamine D-2 receptor was 16.8.
For `FC(F)(F)C(F)(F)c1nc2c(OCCNCc3ccccc3)cccc2[nH]1` [Example 9, Benzyl-{2-[2-(1,1,2,2,2-pentafluoro-ethyl)-1H-benzoimidazol-4-yloxy]-ethyl}-amine], the IC50 amounted to 41.9 nM at dopamine D-2 receptor (setting [3]) and 1.41 nM in test [1] (setting [2]). In addition, the Ratio at dopamine D-2 receptor is reported as 29.7.
On to `FC(F)(F)c1nc2c(OCCNCc3cccc4ccccc34)cccc2[nH]1` [Example 10, Naphthalen-1-ylmethyl-[2-(2-trifluoromethyl-1H-benzoimidazol-4-yloxy]-ethyl]-amine], for which the IC50 on dopamine D-2 receptor (setting [3]) turned out to be 81.5 nM; in test [1] (setting [2]), 0.86 nM. The Ratio on dopamine D-2 receptor is recorded as 94.8.
With `c1csc(CNCCOc2cccc3[nH]cnc23)c1` [Example 11, Thiophen-2-ylmethyl-[2-(1H-benzoimidazol-4-yloxy)-ethyl]-amine], the 50% inhibitory concentration (IC50) in test [1] (setting [2]) stood at 52.8 nM.
Consider `Cc1ccc(CNCCOc2cccc3[nH]c(C(F)(F)C(F)(F)C(F)(F)F)nc23)cc1` [Example 12, (4-Methyl-benzyl)-{2-[2-(1,1,2,2,3,3,3-heptafluoro-propyl)-1H-benzoimidazol-4-yloxy]-ethyl}-amine], for which the IC50 on dopamine D-2 receptor amounted to 118 nM; in test [1] it was 5.12 nM. For the same compound, the Ratio at dopamine D-2 receptor is on record as 23.0.
As for `FC(F)(F)c1nc2c(OCCN3CCc4ccccc4C3)cccc2[nH]1` [Example 13], the IC50 on dopamine D-2 receptor (setting [3]) was 314 nM; in test [1] (setting [2]), 8 nM. Moreover, the Ratio at dopamine D-2 receptor is 39.4.
For the compound `FC(F)(F)c1nc2c(OCCNCc3ccccc3)cc(Cl)cc2[nH]1` [Example 14, Benzyl-[2-(6-chloro-2-trifluoromethyl-1H-benzoimidazol-4-yloxy)-ethyl]-amine], the 50% inhibitory concentration (IC50) on dopamine D-2 receptor (setting [3]) stood at 151 nM; in test [1] (setting [2]), 1.42 nM. At dopamine D-2 receptor, the Ratio was 106.
The matching figures for `FC(F)(F)c1nc2c(OCCNCc3ccc(Cl)cc3)cc(Cl)cc2[nH]1` [Example 15, 4-Chloro-benzyl-[2-(6-chloro-2-trifluoromethyl-1H-benzoimidazol-4-yloxy)-ethyl]-amine]: 395 nM, 7.77 nM and 50.8.
As for `Fc1ccc(CNCCOc2cccc3[nH]c(C(F)(F)F)nc23)cc1` [Example 16, (4-Fluoro-benzyl)-2[2-(2-trifluoromethyl-1H-benzoimidazol-4-yloxy)-ethyl]-amine], the IC50 on dopamine D-2 receptor (setting [3]) came to 49 nM; in test [1] (setting [2]) it was 0.74 nM. At dopamine D-2 receptor, the Ratio was 66.2.
The like results for `FC(F)(F)c1ccc(CNCCOc2cccc3[nH]c(C(F)(F)F)nc23)cc1` [Example 17, [2-(2-Trifluoromethyl-1H-benzoimidazol-4-yloxy)-ethyl]-(4-trifluoromethyl-benzyl)-amine] were, in that order, 87 nM, 1.16 nM and 75.0.
As for `FC(F)(F)c1nc2c(OCCNCCCc3ccccc3)cccc2[nH]1` [Example 18, (3-Phenyl-propyl)-[2-(2-trifluoromethyl-1H-benzoimidazol-4-yloxy)-ethyl]-amine], the IC50 in test [1] (setting [2]) was 0.56 nM.

(Values after patent publication US6127380A, “4-aminoalkoxy-1H-benzoimidazoles” (American Home Products Corporation, priority 1998, dated 2000).)
